Test results: patent US12692278B2, “Synthesis methods and compositions of low intermediate and low dichelate intermediate contrast agents” (priority 2021, dated 2026)

Key:
[1] = Free Gd3+ baseline / in vial, xylenol orange; format: physicochemical
From the text: Additionally or alternately, an improved version of the xylenol orange titration of free Gd3+ in the USP can be used as both an in-process check and a final product check. To obtain a limit of detection adequate for the product produced in the above claims, UV spectroscopy must be used in conjunction with the titration to measure the xylenol orange/free Gd reaction. Furthermore, an indirect measure of metastable intermediates is obtained when the titration reaction is allowed to proceed past the initial reaction of xylenol orange and free Gd. This is because xylenol orange will pull Gd from the metastable intermediates over time. […] Free Gadolinium was determined by using the spectrometric xylenol orange technique described in previous studies.

[2] = Free Gd3+ after exposure to bovine serum; format: physicochemical
Protocol: To show these metastable intermediates readily evolve into free Gd3+, Gd-DOTA was placed in a solution of bovine serum and the amount of Gd3+ was measured.
Bovine blood was obtained at a local slaughterhouse, citrated, centrifuged and serum was obtained and frozen. In tests, serum was slowly heated to body temperature and 1% Gd-DOTA by weight was added to serum and placed on rocker for 30 minutes. Ten samples were tested for each test article.

[3] = Feasibility of excess DTPA, free Gd3+ by xylenol orange; format: physicochemical; settings: new 12 hour sample before DTPA
Protocol: The metastable intermediate concentration is determined by Example 3, and associated methods described in the present application. A Gd-DOTA synthesis containing metastable intermediates is heated to 95° C. in the presence of a stoichiometric amount of DTPA sufficient to consume all the metastable intermediates. The presence of metastable intermediates can be measured as a function of time. The reaction is continued until a desired metastable intermediate content is obtained. Depending on the amount of free DOTA thus liberated, the free DOTA can be reacted with a positively charged resin, as is known in the art. Alternatively, the free DOTA may serve as a buffer against free Gd3+ formation, as is permitted in some drug formulations. Ten samples were prepared by adding stoichiometric amounts of DTPA to counter the excess Gd3+ and stored at room temperature for 24 hours. Samples were tested using the improved spectrometric xylenol orange method.

[4] = Transmetallation with ZnCl solution; format: physicochemical; settings: free Gd; 10% by weight ZnCl solution; unit not given
From the text: 10% by weight ZnCl solution was used to support the serum results, arguing that Zn substitution of Gd in the chelate quantifies the stability of the Gd-DOTA in much the same way that metals in serum block Gd3+ recombination with the chelate, but with more precision, since the contents of bovine serum is variable among mammals.

[5] = pH controlled synthesis, free Gd versus synthesis time; format: physicochemical
Protocol: Here, Example 1A is modified by the addition of gadolinim oxide in its entirety at first and immediately after the introduction of the DOTA, and this procedure is used to produce batch A of Gd-DOTA. Batch B is produced using the following modified procedure.
• 1. Heat reactor to 95° C. • 2. Charge water with all of gadolinium oxide • 3. Stir (stir unless otherwise indicated, nominal rate 300 rpm) until the solution is clear • 4. Add sufficient DOTA to obtain a pH of 4 • 5. When pH is >5 charge sufficient DOTA to reach pH of 4 • 6. Stir until uniformly distributed in the water, and clear • 7. If pH<4, then go to step 9 • 8. Go to step 4 • 9. Divide remaining portion of DOTA into 5 parts • 10. Add 1 part of remaining DOTA • 11. Stir until uniformly distributed in the water, and clear • 12. If DOTA remains to be added go to step 10 • 13. Continue to cook for a total of 12 hours Results

[6] = Feasibility of cation exchange (sodium polystyrene sulfonate), free Gd3+ by xylenol orange; format: physicochemical; settings: before sodium polystyrene sulfonate treatment
Protocol: Feasibility of cation exchange as a method of making Gd-DOTA with low metastable intermediates
Using sodium polystyrene sulfonate, rather than the polymer described above.
Ten samples were stored at room temperature with a stoichiometric amount of sodium polystyrene sulfonate.
Samples were tested using the improved spectrometric xylenol orange method.

[7] = Free Gd(III) in incompletely synthesized complex solution; format: physicochemical; settings: mean of five reactions
Protocol: Then, the content of free DOTA, free gadolinium, and complex was determined, and the final content of excess free DOTA was set. Five reactions were run, using 4.05 g of DOTA, 15 ml water, and 1.78 g of gadolinium oxide. Ten spectroscopic measurements using Xylenol orange were conducted. […] This is the molar amount of xylenol orange added to each reaction product. One can use: Understanding that the denominator is a constant and Abs^573 is the number of free Gd(III) ions that react with the xylenol orange. This is a conservative measure of ppm, given by the ratio of free gadolinium and total gadolinium in the reactant (×10^6). Another possible definition, which would give a higher number (less conservative) is simply comparing free gadolinium to complexed gadolinium, which would mean ppm of free gadolinium for every million complexed gadolinium.

[8] = format: physicochemical
From the text: Ironically, Gd-DTPA has a more favorable binding constant than does Gd-DOTA at pH 7.4. For less basic ligands like Gd-DTPA-BMA and DOTA-(gly)4, the experimental values are closer to the theoretical thermodynamic stability constant because there is less competition from available protons at pH 7.4.

[9] = Feasibility of acid precipitation, free Gd3+ by xylenol orange; format: physicochemical; settings: 12 hour sample, 1 hr 0.1 M HCl, buffer to pH 7.0, filtration
Protocol: The feasibility of acid precipitation as a method for making Gd-DOTA with low metastable intermediate forms was tested.
(§1) Ten samples were tested using the improved spectrometric xylenol orange method after 1 hr exposure to acid (0.1 M HCl), buffer to pH 7.0, and filtration of the precipitate. • 12 hour Example 1A sample was used at 803 ppm Gd3+ • After acid precipitation (N=5) • 8.6+/−9.2 ppm Gd3+ range: 15.9 ppm Gd3+ to undetectable
as §1, with “1B” for “1A”, “undetectable.” for “undetectable”

In the case of `CNC[C@H](O)[C@@H](O)[C@H](O)[C@H](O)CO.O=C([O-])CN1CCN(CC(=O)[O-])CCN(CC(=O)O)CCN(CC(=O)[O-])CC1.[Gd+3]` [Example 1, Gd-DOTA], the “Baseline Free Gd3+” value ([1]; before serum, ppm adjusted to pre-diluted level at drug concentration) is reported as 0.77 +/− 0.92 ppm, the “In Vial” value ([1]; free Gd, no unit printed in this table (ppm in the 1st table)) is reported as 0.77 +/− 0.92 and the “Free Gd+ after serum” value ([2]; 1% Gd-DOTA by weight in bovine serum, body temperature, rocker 30 minutes, ppm adjusted to pre-diluted level) is reported as 88 +/− 16.8 ppm. For the same compound, the “In Serum” value ([2]; free Gd, unit not given) was 2.9 +/− 0.8, the “Gd3+ of starting sample” value [3] was 2146 ppm and the Transmetallation [4] was 88 +/− 16.8. The “Free Gd” value ([5]; synthesis time 4 hrs) was 17,467 +/− 9.4 ppm, the “Free Gd” value ([5]; synthesis time 8 hrs) was 3,448 +/− 8.9 ppm and the “Free Gd” value ([5]; synthesis time 12 hrs) was 803 +/− 8.1 ppm. The “Gd3+ of starting sample” value [6] was 2146 ppm.

With Gd-DOTA [Example 4] the “Free Gd(III), MEAN” value [7] was 30,989 +/− 9410 ppm.

For `CNC[C@H](O)[C@@H](O)[C@H](O)[C@H](O)CO.O=C([O-])CN1CCN(CC(=O)[O-])CCN(CC(=O)O)CCN(CC(=O)[O-])CC1.[Gd+3]` [Gd-DOTA, gadoterate meglumine, reference compound], the “in-bottle measured free gadolinium” value ([1]; commercial product stored in bottle) was 10^13 Gd3+ ions in 100 ml of GCA product and the “stability lower at pH 7.4” value [8] was 7 orders of magnitude.

In the case of `O=C([O-])CN1CCN(CC(=O)[O-])CCN(CC(=O)O)CCN(CC(=O)[O-])CC1.[Gd+3]` [Example 2A, Gd-DOTA], the “Gd3+ after acid precipitation, range (upper value, down to undetectable)” value [9] is reported as ≤ 15.9 ppm and the “Gd3+ after acid precipitation” value ([9]; N=5) is reported as 8.6+/−9.2 ppm.
